Assay results as given in ChEMBL document CHEMBL1201862, “PubChem BioAssay data set” (2004).
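A five-concentration, 48-hour dose response in 96-well plates underlies each endpoint, interpolated linearly between surrounding concentrations. At the GI50, growth is halved.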 Calls of active or inactive are those of the source. Cut-off read from the data, not from the text of the source: active = GI50 up to about 1.1 µM and inactive = higher.

How the values were obtained:
Assay in all cases: NCI anticancer screen, dose series, 48 h
[1] = system: RPMI-8226
[2] = system: HOP-62
[3] = system: HL-60
[4] = system: U-251
[5] = system: MDA-MB-435
[6] = system: SK-OV-3
[7] = system: NCI-H522
[8] = system: Malme-3M
[9] = system: MCF7
[10] = system: PC-3
[11] = system: SK-MEL-2
[12] = system: BT-549
[13] = system: ACHN
[14] = system: NCI-H460
[15] = system: HT-29
[16] = system: M14
[17] = system: Hs-578T
[18] = system: TK-10
[19] = system: MDA-MB-231
[20] = system: UACC-257
[21] = system: HCC 2998
[22] = system: COLO 205
[23] = system: DU-145
[24] = system: 786-0
[25] = system: T47D
[26] = system: UACC-62
[27] = system: OVCAR-3
[28] = system: RXF 393
[29] = system: SK-MEL-5
[30] = system: A549
[31] = system: SF-295
[32] = system: NCI/ADR-RES
[33] = system: MOLT-4
[34] = system: K562
[35] = system: MDA-N
[36] = system: HCT-116
[37] = system: LOX IMVI
[38] = system: SF-268
[39] = system: KM12
[40] = system: SK-MEL-28
[41] = system: NCI-H226
[42] = system: EKVX
[43] = system: A498
[44] = system: SNB-19
[45] = system: UO-31
[46] = system: CCRF-CEM
[47] = system: OVCAR-8
[48] = system: SN12C
[49] = system: NCI-H23
[50] = system: CAKI-1
[51] = system: SW-620
[52] = system: SF-539
[53] = system: HCT-15
[54] = system: IGROV-1

Question: For `c1ccc2c(CN3CCC(C4CCN(Cc5cccc6ccccc56)CC4)CC3)cccc2c1`, which GI50 [1] is on record?
Answer: 2.57 µM (inactive)

Question: What about the GI50 [2] of the same compound?
Answer: 25.4 µM (inactive)

Question: And the GI50 [3]?
Answer: 3.01 µM (inactive)

Question: What about the GI50 [4] of the same compound?
Answer: 16.5 µM (inactive)

Question: And the GI50 [5]?
Answer: 3.52 µM (inactive)

Question: And the GI50 [6]?
Answer: 28 µM (inactive)

Question: And the GI50 [7]?
Answer: 8.53 µM (inactive)

Question: And the GI50 [8]?
Answer: 3.47 µM (inactive)

Question: What about the GI50 [9] of the same compound?
Answer: 26.5 µM (inactive)

Question: And the GI50 [10]?
Answer: 32.8 µM (inactive)

Question: And the GI50 [11]?
Answer: 8.41 µM (inactive)

Question: What about the GI50 [12] of the same compound?
Answer: > 56 µM (inactive)

Question: What about the GI50 [13] of the same compound?
Answer: 33.3 µM (inactive)

Question: And the GI50 [14]?
Answer: 16.3 µM (inactive)

Question: What about the GI50 [15] of the same compound?
Answer: 3.28 µM (inactive)

Question: And the GI50 [16]?
Answer: 1.98 µM (inactive)

Question: And the GI50 [17]?
Answer: 32.1 µM (inactive)

Question: And the GI50 [18]?
Answer: 20.1 µM (inactive)

Question: What about the GI50 [19] of the same compound?
Answer: 21.4 µM (inactive)

Question: And the GI50 [20]?
Answer: 3.48 µM (inactive)

Question: And the GI50 [21]?
Answer: 1.77 µM (inactive)

Question: And the GI50 [22]?
Answer: 1.77 µM (inactive)

Question: What about the GI50 [23] of the same compound?
Answer: 86.1 µM (inactive)

Question: And the GI50 [24]?
Answer: 16.3 µM (inactive)

Question: And the GI50 [25]?
Answer: 23.1 µM (inactive)

Question: And the GI50 [26]?
Answer: 7.43 µM (inactive)

Question: And the GI50 [27]?
Answer: > 58.6 µM (inactive)

Question: And the GI50 [28]?
Answer: 21.8 µM (inactive)

Question: What about the GI50 [29] of the same compound?
Answer: 4.89 µM (inactive)

Question: And the GI50 [30]?
Answer: 62.7 µM (inactive)

Question: And the GI50 [31]?
Answer: 6.28 µM (inactive)

Question: What about the GI50 [32] of the same compound?
Answer: 38.3 µM (inactive)

Question: And the GI50 [33]?
Answer: 5.27 µM (inactive)

Question: What about the GI50 [34] of the same compound?
Answer: 1.6 µM (inactive)

Question: What about the GI50 [35] of the same compound?
Answer: 8.13 µM (inactive)

Question: Which results are given for `CC1CC/C(=C\c2ccc(F)cc2)C2=C1C(c1ccc(F)cc1)N1C(=O)CSC1=N2` (stereo not given)?
Answer: GI50 [36]: 50 µM (inactive); GI50 [37]: 44 µM (inactive); GI50 [1]: 15.5 µM (inactive); GI50 [3]: 4.35 µM (inactive); GI50 [38]: > 100 µM (inactive); GI50 [39]: 35.7 µM (inactive); GI50 [4]: 93.3 µM (inactive); GI50 [5]: 91 µM (inactive); GI50 [6]: > 100 µM (inactive); GI50 [8]: > 100 µM (inactive); GI50 [40]: > 100 µM (inactive); GI50 [41]: 53 µM (inactive); GI50 [9]: 55.1 µM (inactive); GI50 [42]: 17.7 µM (inactive); GI50 [10]: 25.6 µM (inactive); GI50 [11]: > 100 µM (inactive); GI50 [43]: 57 µM (inactive); GI50 [12]: > 100 µM (inactive); GI50 [13]: > 100 µM (inactive); GI50 [14]: 30.8 µM (inactive); GI50 [15]: 23.2 µM (inactive); GI50 [16]: > 100 µM (inactive); GI50 [17]: > 100 µM (inactive); GI50 [18]: > 100 µM (inactive); GI50 [44]: > 100 µM (inactive); GI50 [19]: > 100 µM (inactive); GI50 [20]: 62.1 µM (inactive); GI50 [45]: 87.9 µM (inactive); GI50 [22]: > 100 µM (inactive); GI50 [23]: > 100 µM (inactive); GI50 [24]: > 100 µM (inactive); GI50 [25]: 45.1 µM (inactive); GI50 [46]: 41.2 µM (inactive); GI50 [26]: > 100 µM (inactive); GI50 [47]: 69.7 µM (inactive); GI50 [48]: > 100 µM (inactive); GI50 [27]: > 100 µM (inactive); GI50 [49]: 58.5 µM (inactive); GI50 [28]: 21.7 µM (inactive); GI50 [29]: 40 µM (inactive); GI50 [31]: 45.6 µM (inactive); GI50 [32]: 49.9 µM (inactive); GI50 [50]: > 100 µM (inactive); GI50 [51]: > 100 µM (inactive); GI50 [52]: > 100 µM (inactive); GI50 [53]: 43.3 µM; GI50 [33]: 6.55 µM (inactive); GI50 [54]: 9.23 µM (inactive); GI50 [34]: 21.9 µM (inactive); GI50 [35]: > 100 µM (inactive)
